Laboratory results published in patent US8158158B2, “Composite biocidal particles” (Arch Chemicals, Inc., priority 1998, dated 2012).
Like-named read-outs stand apart in the source and are kept apart here.

Experiments:
[1] = cited from earlier work; for solubility: background statement
hard and soft fouling = test: Antifouling efficacy of paint on fiberglass panels submerged in seawater; assay type: in vivo; details: single biocide, explanatory statement
Procedure: The antifouling efficacy of the composition of Example 1 was evaluated by mixing […] of it into 90 grams of a paint base. The commercial paint comprised:
This paint was painted onto fiberglass panels (8″×10″) and (12″×6″), which were then submerged in seawater for eight months (and running) in Miami, Fla.

| Molecule | water solubility ([1]; water) | solubility [1] | efficacy against algae (hard and soft fouling) | resistance to barnacle formation (hard and soft fouling) | water solubility ([1]; in seawater) |
| --- | --- | --- | --- | --- | --- |
| [Na+].[O-][n+]1ccccc1[S-] [sodium salt of pyrithione, sodium pyrithione] | about 53 % by weight |  |  |  |  |
| zinc pyrithione | 6-10 ppm | 6-10 ppm |  |  |  |
| [Cu].[O]=[Cu] [cuprous oxide] |  |  | relatively ineffective against algae | strongly resisting barnacle formation |  |
| On1ccccc1=S.On1ccccc1=S.[Cu] [Copper pyrithione, copper pyrithione] |  | about 1 ppm | most effective against algae |  | less than 1 ppm |
